# Measurements published in patent US5273978A, “Optically active isoindoline derivatives, their production and use” (Takeda Chemical Industries, Ltd., priority 1991, dated 1993).
# Where two headings read alike, the source gives them in different places.
# Legend:
# benzodiazepine receptor = experiment: Inhibition of [3H]diazepam binding to benzodiazepine receptor (crude mitochondrial fraction of rat cerebral cortex); design: species or system male SD rats; details: in words
# Description: The affinity of the compound of the present invention to a benzodiazepine receptor was investigated using radioactive [^3 H] diazepam.
# Capability of specific binding to a benzodiazepin receptor was determined in accordance with the method described in the literature (Nature, 266, 732 (1977); European J. Pharmacol., 48, 263 (1978). Specifically, a crude mitochondrial fraction obtained from the cerebral cortex of male SD rats at 9 to 10 weeks of age was suspended in 50 mM Tris-HCL buffer (pH 7.4), and incubated, together with several concentrations of the subject drug and ^3 H-diazepam (final concentration 2 nM), at 4° C. for 20 minutes. This suspension was then filtered through a Whatman GF/B glass fiber filter, and the ^3 H-diazepam radioactivity on the filter was measured using a liquid scintillation counter. The concentration of the subject drug at which ^3 H-diazepam binding was inhibited by 50% was taken as the IC50 value.
# Results from a typical compounds (VI) and (VIII) of the present invention and the corresponding racemic modifications thereof are shown in Table 1.
# Male rats (SD/JCL) = experiment: Antianxiety action (Vogel method, anticonflict water drinking test in rats); format: in vivo, rat (SD/JCL); details: for minimal effective dose: Rattus norvegicus, rats; for antianxiety action stronger than that of the corresponding racemic modification: from MED values of Table 2
# [1] = po, 0.5 h, p.o., 30 minutes after dosing, water drinking frequency in 3 minutes, read-out: Minimum Effective Dose (MED), antianxiety action (Vogel method)
# [2] = ip, 0.05 h, i.p., water drinking frequency in 3 minutes, read-out: Minimum Effective Dose (MED), antianxiety action (Vogel method)
Compound,affinity to the benzodiazepin receptor versus racemic modification (benzodiazepine receptor),minimal effective dose (Male rats (SD/JCL); [1]) [mg/kg],minimal effective dose (Male rats (SD/JCL); [2]) [mg/kg],"minimal effective dose (Male rats (SD/JCL); po, 0.5 h, P.O., read-out: MED for antianxiety action in rats) [mg/kg]",antianxiety action stronger than that of the corresponding racemic modification (Male rats (SD/JCL)) [times]
"O=C(CC1c2ccccc2C(=O)N1c1ccc2ccc(Cl)nc2n1)N1CCC2(CC1)OCCO2 (racemic) [Racemic modification of (VI), reference compound]",nearly fully potent action,10,,,
"O=C(CC1c2ccccc2C(=O)N1c1ccc2ccc(Cl)nc2n1)N1CCC(O)CC1 (racemic) [Racemic modification of (VIII), reference compound]",,,20,,
"O=C(C[C@H]1c2ccccc2C(=O)N1c1ccc2ccc(Cl)nc2n1)N1CCC2(CC1)OCCO2 [(VI), (S)-(+)-2-(7-chloro-1,8-naphthylidin-2yl)-3-[(1,4-dioxa-8-azaspiro[4.5]dec-8-yl)carbonylmethyl]isoindolin-1-one]",no enhanced affinity,1.25,,≤ 1.25,8
"O=C(C[C@H]1c2ccccc2C(=O)N1c1ccc2ccc(Cl)nc2n1)N1CCC(O)CC1 [(VIII), (S)-(+)-2-(7-chloro-1,8-naphthylidin-2-yl)-3-[(4-hydroxypiperidin-1-yl)carbonylmethyl]isoindolin-1-one]",,,5,,4
